From ChEMBL document CHEMBL3885861, “Open TG-GATES”

Organism: Rattus norvegicus
Experiment: Open TG-GATES - Regimen: Single
Type: toxicity, organism-based, Sprague-Dawley
Design: regimen Single, gender Male, age 6 weeks
Conditions: in vivo, po, 300 mg/kg, route gavage, dose level Low; for APTT / Bas / Eos / Fbg / Hb / Ht / Lym / MCH / MCHC / MCV / Mono / Neu / PT / Plat / RBC / Ret / WBC: tissue Blood; for KIDNEY_L / KIDNEY_R / KIDNEY_TOTAL: tissue Kidney; for LIVER: tissue Liver; for A/G / ALP / ALT / AST / BUN / CRE / Ca / Cl / DBIL / GLC / IP / K / LDH / Na / PL / RALB / TBIL / TC / TG / TP / gamma-GTP: tissue Plasma

CCN1CCCC1CNC(=O)c1cc(S(N)(=O)=O)ccc1OC (configuration not stated) [SULPIRIDE]
TERMINAL_BW (3 h): 202.3 g | APTT (3 h): 16.9 s | Bas (3 h): 0% | Eos (3 h): 0.8% | Fbg (3 h): 268.2 mg/dL | Hb (3 h): 12.9 g/dL | Ht (3 h): 40.1% | Lym (3 h): 83% | MCH (3 h): 20.5 pg | MCHC (3 h): 32.3% | MCV (3 h): 63.3 fL | Mono (3 h): 2.6% | Neu (3 h): 12.6% | PT (3 h): 13.5 s | Plat (3 h): 123.5 x10_4/uL | RBC (3 h): 633 x10_4/ul | Ret (3 h): 8.1% | WBC (3 h): 80.2 x10_2/uL | KIDNEY_L (3 h): 0.9 g | KIDNEY_R (3 h): 0.9 g | KIDNEY_TOTAL (3 h): 1.9 g | LIVER (3 h): 9.4 g | A/G (3 h): 0.9 | ALP (3 h): 1455.4 IU/L | ALT (3 h): 35.6 IU/L | AST (3 h): 72.8 IU/L | BUN (3 h): 9.8 mg/dL | CRE (3 h): 0.2 mg/dL | Ca (3 h): 11.1 mg/dL | Cl (3 h): 105.8 meq/L | DBIL (3 h): 0.004 mg/dL | GLC (3 h): 173 mg/dL | IP (3 h): 8.2 mg/dL | K (3 h): 4.2 meq/L | LDH (3 h): 124.4 IU/L | Na (3 h): 141.6 meq/L | PL (3 h): 143.4 mg/dL | RALB (3 h): 2.5 g/dL | TBIL (3 h): 0.062 mg/dL | TC (3 h): 77.8 mg/dL | TG (3 h): 74.2 mg/dL | TP (3 h): 5.2 g/dL | gamma-GTP (3 h): 1.6 IU/L | TERMINAL_BW (6 h): 199.9 g | APTT (6 h): 16.7 s | Bas (6 h): 0% | Eos (6 h): 1% | Fbg (6 h): 287.4 mg/dL | Hb (6 h): 13.1 g/dL | Ht (6 h): 41.1% | Lym (6 h): 78% | MCH (6 h): 20.5 pg | MCHC (6 h): 31.9% | MCV (6 h): 64.2 fL | Mono (6 h): 2.8% | Neu (6 h): 17.4% | PT (6 h): 13.5 s | Plat (6 h): 122.9 x10_4/uL | RBC (6 h): 641.2 x10_4/ul | Ret (6 h): 8.4% | WBC (6 h): 95.5 x10_2/uL | KIDNEY_L (6 h): 0.9 g | KIDNEY_R (6 h): 0.9 g | KIDNEY_TOTAL (6 h): 1.8 g | LIVER (6 h): 8.9 g | A/G (6 h): 0.9 | ALP (6 h): 1332.4 IU/L | ALT (6 h): 36.4 IU/L | AST (6 h): 68.4 IU/L | BUN (6 h): 9.6 mg/dL | CRE (6 h): 0.2 mg/dL | Ca (6 h): 11 mg/dL | Cl (6 h): 104.8 meq/L | DBIL (6 h): 0.01 mg/dL | GLC (6 h): 179.4 mg/dL | IP (6 h): 9.4 mg/dL | K (6 h): 4.3 meq/L | LDH (6 h): 125.8 IU/L | Na (6 h): 141.2 meq/L | PL (6 h): 137.6 mg/dL | RALB (6 h): 2.5 g/dL | TBIL (6 h): 0.074 mg/dL | TC (6 h): 75.4 mg/dL | TG (6 h): 59 mg/dL | TP (6 h): 5.2 g/dL | gamma-GTP (6 h): 1.2 IU/L | TERMINAL_BW (9 h): 198.2 g | APTT (9 h): 16.3 s | Bas (9 h): 0.2% | Eos (9 h): 0.8% | Fbg (9 h): 287.2 mg/dL | Hb (9 h): 13.3 g/dL | Ht (9 h): 41% | Lym (9 h): 77.4% | MCH (9 h): 20.6 pg | MCHC (9 h): 32.3% | MCV (9 h): 63.7 fL | Mono (9 h): 2.4% | Neu (9 h): 19% | PT (9 h): 13.4 s | Plat (9 h): 129.5 x10_4/uL | RBC (9 h): 644.4 x10_4/ul | Ret (9 h): 7.6% | WBC (9 h): 83.6 x10_2/uL | KIDNEY_L (9 h): 0.9 g | KIDNEY_R (9 h): 0.9 g | KIDNEY_TOTAL (9 h): 1.8 g | LIVER (9 h): 7.7 g | A/G (9 h): 0.9 | ALP (9 h): 1287.4 IU/L | ALT (9 h): 34.4 IU/L | AST (9 h): 70.4 IU/L | BUN (9 h): 7.4 mg/dL | CRE (9 h): 0.1 mg/dL | Ca (9 h): 10.4 mg/dL | Cl (9 h): 106.8 meq/L | DBIL (9 h): 0 mg/dL | GLC (9 h): 168.4 mg/dL | IP (9 h): 9.9 mg/dL | K (9 h): 3.7 meq/L | LDH (9 h): 116.4 IU/L | Na (9 h): 142.6 meq/L | PL (9 h): 118.4 mg/dL | RALB (9 h): 2.5 g/dL | TBIL (9 h): 0.07 mg/dL | TC (9 h): 70 mg/dL | TG (9 h): 29.8 mg/dL | TP (9 h): 5.2 g/dL | gamma-GTP (9 h): 1.2 IU/L | TERMINAL_BW (24 h): 215.3 g | APTT (24 h): 17.5 s | Bas (24 h): 0.2% | Eos (24 h): 1% | Fbg (24 h): 305 mg/dL | Hb (24 h): 13.5 g/dL | Ht (24 h): 41.4% | Lym (24 h): 78% | MCH (24 h): 20.9 pg | MCHC (24 h): 32.6% | MCV (24 h): 64.1 fL | Mono (24 h): 2.6% | Neu (24 h): 17.4% | PT (24 h): 12.7 s | Plat (24 h): 130.7 x10_4/uL | RBC (24 h): 646 x10_4/ul | Ret (24 h): 7% | WBC (24 h): 93.3 x10_2/uL | KIDNEY_L (24 h): 0.9 g | KIDNEY_R (24 h): 0.9 g | KIDNEY_TOTAL (24 h): 1.8 g | LIVER (24 h): 9.9 g | A/G (24 h): 0.9 | ALP (24 h): 1728.6 IU/L | ALT (24 h): 44.2 IU/L | AST (24 h): 66.4 IU/L | BUN (24 h): 14.8 mg/dL | CRE (24 h): 0.2 mg/dL | Ca (24 h): 11.1 mg/dL | Cl (24 h): 106.4 meq/L | DBIL (24 h): 0.014 mg/dL | GLC (24 h): 180.4 mg/dL | IP (24 h): 7.4 mg/dL | K (24 h): 4.4 meq/L | LDH (24 h): 179.2 IU/L | Na (24 h): 141.6 meq/L | PL (24 h): 156.2 mg/dL | RALB (24 h): 2.7 g/dL | TBIL (24 h): 0.064 mg/dL | TC (24 h): 79.2 mg/dL | TG (24 h): 134.4 mg/dL | TP (24 h): 5.7 g/dL | gamma-GTP (24 h): 1 IU/L
